The record followed here is patent US20120053534A1, “INTRAVAGINAL DEVICES COMPRISING ANTICHOLINERGIC AGENTS, AND METHODS OF MAKING THEREOF” (priority 2010, published 2012).

The data set can be described thus: in vivo. The settings on record: female, dog, plasma, po, 10 mg/day.

Method: A study was conducted to determine the levels of oxybutynin and its active metabolite, N-desethyloxybutynin, present in plasma following oral and intravaginal administration of oxybutynin in dogs.
A 14 day study was conducted, where 8 young adult females were randomly assigned to 4 groups of 2 dogs each.

Regarding `CCN(CC)CC#CCOC(=O)C(O)(c1ccccc1)C1CCCCC1` (stereo not shown) [oxybutynin, 4-diethylaminobut-2-ynyl2-cyclohexyl-2-hydroxy-2-phenyl-ethanoate], the Cmax (usually the highest concentration seen after dosing) is around 17.9 ng/mL.
